The source of these data is PubChem BioAssay (NCI).

Common to all, as to test: inhibition of tumour cell growth, NCI panel, 48 h
Test [1] deals with HOP-62 NSCLC.
For test [2], the system named is NCI-H460 lung.
Test [3] deals with NCI-H226 lung.
The test system of test [4] is BT-549 breast.
Test [5] deals with CCRF-CEM leukemia.
The test system of test [6] is HT29 colon.
Test [7] concerns SK-MEL-2 melanoma.
Test [8] has as its system 786-0 renal.
The subject of test [9] is NCI-H23 lung.
Test [10] deals with MALME-3M melanoma.

The structures appear in SMILES notation. Several values for one entry are separate records, joined by “and”; a condition that tells them apart may be missing. Equal entries are not always repeated.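 Dose response: 5 concentrations. Exposure: 48 h. Format: 96-well plates. Endpoint: linear interpolation; highest concentration if not reached. At the GI50, growth is halved. TGI is the concentration that stops growth completely.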

As to `O=C(OCc1ccccc1)N1c2cc([N+](=O)[O-])ccc2C(=O)N2CCC[C@H]2C1O` (some centres not stated), the TGI in test [1], in test [2], in test [3], in test [4], in test [5] and in test [6] was > 100 µM each time. In addition, the TGI in test [7], in test [8] and in test [9] was > 100 µM throughout.
As for `CC1CCC2(CC1)N=C1CCC(C)CC1C1(CCC(C)CC1)N2` (configuration not stated), the TGI in test [2], in [3], in test [4], in [5], in [10] and in test [6] was > 100 µM throughout. Moreover, the TGI in test [7], in [8] and in [9] was > 100 µM throughout.
As to `CC(=O)NC1=CC(=O)c2cc(C)cc(O)c2C1=O`, the TGI stood at 35.2 µM in test [1]; 36.1 µM in test [2]; 38.5 µM in [3]; 18.9 µM in [4]; 12.9 µM in [5]; 4.33 µM in test [10]. The TGI in test [6] was found to be 46.9 µM; in test [7] it was 17.9 µM; in test [8], 27.3 µM; in test [9], 5.21 µM.
On to `CC(C)CCC[C@@H](C)[C@H]1CCC2C3=CCC4C(=O)C=CC(=O)C4C3CC[C@@]21C` (some centres not stated), for which the GI50 in test [1] is 0.552 µM; in test [2], 0.324 µM; in test [3], 0.849 µM; in test [4], 0.306 µM; in test [5] it was 0.179 µM; in [10] it was 0.399 µM. The GI50 in test [6] is 0.839 µM; in test [7], 1.14 µM. Besides, the TGI in test [1] is > 100 µM; in [2] it was 2.59 µM; in test [3] it was > 100 µM; in [4], 1.72 µM; in test [5] it was > 100 µM; in test [10], 2 µM. In [6], the TGI was > 100 µM.
On to `CCOc1cc(C2SCC(=O)N2c2nc3cc4sc(N5C(=O)CSC5c5ccc(O)c(OCC)c5)nc4cc3s2)ccc1O` (configuration not stated), for which the TGI in [1] was > 100 µM; in [2], > 27.5 µM; in [3], > 94.4 µM; in [4], > 85.4 µM; in [5] it was > 84.2 µM; in test [10], > 100 µM. Besides, the TGI in test [6], in test [7], in test [8] and in test [9] was > 100 µM in each case.
As for `O=C1C(N=Nc2ccc(-c3nc4ccccc4[nH]3)cc2)NC(=S)N1c1ccccc1` (configuration not stated), the TGI in [1] was > 100 µM; in test [2], > 100 µM; in test [3] it was > 100 µM; in test [4], > 100 µM; in [5], 56 µM; in test [10], > 100 µM. In addition, the TGI in test [6] is > 100 µM; in [7], > 100 µM; in test [8], 39 µM; in [9], > 100 µM.
On to `CCC(C)C1(O)OC2CC3(C)OC(=CC3=O)/C(C)=C\C3OC(=O)C1(C)C32` (configuration not stated), for which the TGI in test [1] is > 100 µM; in test [2] it was 57.9 µM; in test [3], 63 µM; in test [4], 12.8 µM; in [5], > 100 µM; in test [6], 34.3 µM. Moreover, the TGI came out at 96.5 µM in [7], 81.8 µM in [8] and 24.7 µM in [9].
For the compound `Nc1ccc(-n2c(=O)oc3ccc(Cl)cc3c2=O)c(Cl)c1`, the GI50 is 0.202 µM in test [1]; 0.109 µM in test [2]; 0.154 µM in test [3]; 0.0844 µM in test [4]; 0.139 µM in [5]; 0.0838 µM in [10]. Also, the GI50 in test [6] is 1.17 µM; in test [7], 0.207 µM; in [9], 0.0921 µM. The TGI was found to be 1.59 µM in test [1]; 3.74 µM in test [2]; 0.787 µM in test [3]; 0.338 µM in [4]; 1.56 µM in test [5]; 0.362 µM in test [10]. Also, the TGI in test [6] is > 35.3 µM; in test [7], 0.807 µM; in test [9], 0.486 µM.
In the case of `O=c1[nH]c2ccccc2c2oc(-c3ccccc3)nc12`, the TGI in [1] is 39 µM; in [2] it was > 100 µM; in test [3] it was > 100 µM; in test [4], > 100 µM; in test [5], 52.6 µM; in test [10], > 100 µM. Besides, the TGI in test [6] is > 100 µM; in test [7], > 100 µM; in test [8] it was 56.1 µM; in test [9] it was > 100 µM.
Consider `Cn1ccc(C(=O)NCCCCCNC(=O)c2ccn(C)c(=O)c2O)c(O)c1=O`, for which the TGI in [2], in test [3], in [4], in test [5], in [10] and in [6] was > 100 µM in each case. Moreover, the TGI in [7], in [8] and in test [9] was > 100 µM in each case.
Consider `COc1ccc(C2=CN3CCC[C@H]3C=C2c2cc(O)c(OC)c(OC)c2)cc1OC`, for which the TGI in [1] is 0.122 µM and 0.148 µM; in test [2], 0.0267 µM and 0.0127 µM; in test [3], 0.0294 µM; in test [4], 0.331 µM; in test [5], 0.235 µM; in [10] it was 0.0333 µM. Also, the TGI is 0.113 µM and 0.0377 µM in test [6]; 0.0161 µM in [7]; 0.0278 µM in test [9].
Turning to `Cc1cccc2c1C/C(=C\c1cccc(C)c1C(=O)O)C2=O`, the TGI in test [1], in test [2], in test [3], in test [4], in test [5] and in [10] was > 100 µM throughout. Also, the TGI in [6], in test [7], in [8] and in test [9] was > 100 µM in each case.
Turning to `CC(=N\N=C\c1ccccn1)/C(C)=N/N=C(C)/C(C)=N/N=C(C)/C(C)=N/N=C/c1ccccn1`, the TGI in test [1], in [2], in [3], in test [4], in [5] and in test [10] was > 100 µM throughout. In addition, the TGI in test [6], in [7], in test [8] and in [9] was > 100 µM each time.
For `C[C@H](CCC1=NCCN1)[C@H]1CC[C@H]2[C@@H]3CC[C@@H]4C[C@H](O)CC[C@]4(C)[C@H]3C[C@H](O)[C@]12C`, the TGI in test [1] is 28.9 µM; in [2] it was 31.2 µM; in [3], 31 µM; in test [4] it was 33.1 µM; in test [5], 30.4 µM; in test [10] it was 27.9 µM. In addition, the TGI in test [6] was 22.3 µM; in [7] it was 26.7 µM; in [8] it was 33 µM; in test [9], 27 µM.
In the case of `Nc1c(S(=O)(=O)O)cc(Nc2cccc(S(=O)(=O)/C=C/S(=O)(=O)O)c2)c2c1C(=O)c1ccccc1C2=O`, the TGI in test [1], in test [2], in test [3], in test [4], in [5] and in test [10] was > 100 µM throughout. Besides, the TGI in test [6], in test [7], in test [8] and in test [9] was > 100 µM throughout.
With `COc1ccc2c(c1)-c1oc3ccccc3c(=O)c1CO2`, the TGI is > 100 µM in test [1]; > 100 µM in test [3]; 96.8 µM in test [4]; > 100 µM in test [5]; > 100 µM in test [10]; > 100 µM in [6]. Further, the TGI in test [7] was 83.3 µM; in test [8], > 100 µM; in [9], > 100 µM.
As for `N#Cc1c(N2CCN(c3ccc([N+](=O)[O-])cc3)CC2)[n+](=O)c2ccc(Cl)cc2n1[O-]`, the TGI came to 3.7 µM in test [2]; 13.8 µM in [3]; 1.61 µM in test [4]; 4.2 µM in [5]; 6.31 µM in [10]; 7.31 µM in test [6]. Further, the TGI in [7] is 8.54 µM; in test [8], 4.58 µM; in test [9] it was 3.96 µM.
Turning to `O=C(O)C1SCCS1`, the TGI in test [1], in test [2], in test [3], in test [4], in test [5] and in test [10] was > 100 µM in each case. The TGI in test [6], in test [8] and in [9] was > 100 µM in each case.
`O=C1C[C@H](c2ccccc2)C2(C(=O)c3ccccc3C2=O)[C@H](c2ccccc2)C1`: the TGI in test [1] is 96 µM; in [2], > 100 µM; in test [3], > 100 µM; in test [4], > 100 µM; in test [5], > 100 µM; in test [10], > 100 µM. Also, the TGI in [6], in test [7] and in [9] was > 100 µM throughout.
As for `NC(=O)NCCCC(NC(=O)OCCCCCn1ccc(=O)[nH]c1=O)C(=O)O` (configuration not stated), the TGI in test [1], in test [2], in test [3], in [4], in test [5] and in [6] was > 100 µM throughout. Moreover, the TGI in test [7], in test [8] and in test [9] was > 100 µM throughout.
Turning to `CCOC(=O)C(NCc1cccc(C(F)(F)F)c1)(NC(=O)c1ccccc1)C(F)(F)F` (configuration not stated), the TGI was > 100 µM in test [1]; > 100 µM in [3]; 56.1 µM in test [4]; > 100 µM in test [5]; 69 µM in test [10]; 48.5 µM in [6]. Moreover, the TGI in test [7] is > 100 µM; in test [8], 79.5 µM; in [9], 70.8 µM.
`CC[C@@H]1CC[C@@H]2[C@H](CC[C@]3(C)[C@@H](OS(=O)(=O)c4ccc(C)cc4)CC[C@@H]23)[C@H]1CO`: the TGI in test [1], in test [2], in [3], in test [4], in test [5] and in test [10] was > 100 µM in each case. Besides, the TGI in test [6], in test [8] and in test [9] was > 100 µM throughout.
On to `COc1ccc(C2(C3c4cc(OC)c(OC)cc4CCN3C)SCCCS2)cc1O` (configuration not stated), for which the TGI in test [1], in test [2], in test [4], in test [5], in test [10] and in test [6] was > 100 µM in each case. Besides, the TGI in [7], in [8] and in test [9] was > 100 µM each time.
In the case of `NC(=O)CS(=O)CC(N)C(=O)O` (configuration not stated), the TGI in test [1], in [2], in [3], in [4], in [10] and in [6] was > 100 µM in each case. In addition, the TGI in test [7], in test [8] and in [9] was > 100 µM throughout.
Consider `CC(=O)OCC1OC(c2nnc(C)o2)=CC(OC(C)=O)C1OC(C)=O` (configuration not stated), for which the TGI in test [1], in [2], in [3], in test [4], in [5] and in test [10] was > 100 µM each time. Further, the TGI in [6], in test [8] and in test [9] was > 100 µM throughout.
Take `O=C(O)c1ccc(Nc2nc3ccccc3nc2C(=O)O)cc1`: the TGI in test [1], in [2], in [4], in test [5], in test [10] and in test [6] was > 100 µM in each case. The TGI in [7], in test [8] and in [9] was > 100 µM each time.
